# Data: patent US12065512B2, “Cyclic peptide and a medicament, external preparation and cosmetic comprising said cyclic peptide” (Igisu Co., Ltd., priority 2015, dated 2024)
# Positions of bridges follow the written chain, without caps; N, C: chain ends. No end group written: not given here.
# Tested on: nasal cavity
# Test: Cyclic peptides with amino acid replacement: nasal effect (formulations A to E = 3, 15, 30, 100, 500 μg/ml in physiological saline, 0.1 ml)
# Format: in vivo, human
# Conditions: formulation C (30 μg/ml in physiological saline), once a day, 0.1 ml applied to each nasal cavity; subject with allergic rhinitis
# Protocol: Next, cyclic peptides with some replaced amino acid were subjected to following examination in order to confirm their effect. The methods for preparing the above cyclic peptide and confirming amino acid sequence of the prepared peptide were same as the method for preparing the cyclic peptide as described above and Mass spectroscopy method.
# 9.3 Confirming Nasal Effect
# The obtained cyclic peptide was prepared in physiological saline at 3, 15, 30, 100 or 500 μg/ml, and 0.1 ml each was applied to nasal cavity. Each of formulations A to E in the table indicates the concentration of the cyclic peptide at 3, 15, 30, 100 or 500 μg/ml, respectively. The absence of the effect upon the application of physiological saline without the peptide confirmed the effect was not a placebo effect.
substance,measurement,value
SEQ ID NO 34 (CFGRKMDRISSSSGVGC; disulfide 1-17),Itches after application,No irritating symptoms.
